# Patent publication EP0370481A2, “Pharmaceutical preparations for the enhanced resorption of antibacterial compounds” (priority 1988, dated 1990)
# Columns and labels:
# [1] = Rectal absorption in vivo (monkeys): suppositories, plasma level
# From the text: Für diesen Versuch wurden männliche und weibliche erwachsene Affen (Papio anubis und Papio hamadryas) im Gewicht vom 12-27 kg verwendet, die 24 Stunden vor der Verabreichung des Antibiotikums fasten gelassen wurden, dann durch i.m.-Injektionen von Kefamin Hydrochlorid vor der Verabreichung des Antibiotikums sediert wurden. Aus den nachstehend beschriebenen Formulierungen wurden Suppositorien hergestellt die den Tieren verabreicht wurden. Die Rektalöffnungen wurden dann mit Klebeband verschlossen, um ein Herausdrücken der Suppositorienmasse zu vermeiden.
# Zur Messung der Resorption des Antibiotikums in den Blutstrom wurden Blutproben aus der Femoralregion vor der Verabreichung des Antibiotikums und 15, 30, 60, 120, 240, 360 und 480 Minuten danach entnommen. Proben wurden zentrifugiert und wie oben beschrieben vermessen.
# [2] = Oral absorption in vivo (dogs): enteric-coated hard gelatin capsules by gavage, plasma level; details: for Cmax: male, beagle, dog, plasma
# From the text: Für diesen Versuch wurden männliche Beagle-Hunde im Gewicht von 10-14 kg verwendet, die 2-3 Hartgelatinekapseln durch die Schlundsonde erhielten. Die Kapseln hatten folgende Zusammensetzung:
# Die Kapseln waren mit einem Ueberzug von Polyvinylacetatphthalat (etwa 8% des Kapselgewichtes versehen).
# Die Plasmakonzentrationen wurden von Ceftriaxon vor der Verabreichung und 10, 20, 40, 60, 120, 180 und 240 Minuten nach der Verabreichung ermittelt. Die Messungen wurden in Blutplasma nach Deproteinisierung weiter oben beschrieben ermittelt.
# [3] = Enteral absorption in vivo (rats): intraduodenal injection, antibiotic plasma level by agar-plate bioassay; details: Dosis = 5 mg/0,5 ml
# From the text: Weibliche Ratten im Gewicht von etwa 250 g wurden über Nacht fasten gelassen und mit Metofan anästhesiert. Die Antibiotika wurden in Lösung mit oder ohne Resorptionsver, stärker nach Bauchschnitt in das Duodenum unterhalb des Magenausgangs injiziert. Für Vergleichszwecke wurde die Lösung alternativ intravenös in die Schwanzvene appliziert.
# Die Konzentration des Antibiotikums im Plasma der Ratte wurde nach verschiedenen Zeitintervallen nach intravenöser oder enteraler Verabreichung bestimmt. Blutproben wurden aus der Schwanzvene des Versuchstiers vor der Verabreichung des Antibiotikums und 5, 10, 20, 40, 60, 120, 240 und 360 Minuten danach entnommen, danach zentrifugiert und das Plasma bis zur Analyse eingefroren.
# Antibiotika, die nicht an Plasma gebunden waren, wurden mit Wasser verdünnt und gegen in Wasser hergestellte Standards geprüft. Für gebundene Antibiotika wurde der Einfluss der Proteinbindung eliminiert durch Verdünnen aller Standardlösungen und Proben im gesammelten Plasma. Im Fall von Ceftriaxon in Cefazolin wurde der Effekt der Bindung dadurch berücksichtigt, dass Plasmaproben mit Acetonitril mit einem Verdünnungsfaktor 1:12 deproteinisiert und gegen eine Standardkurve in Wasser verdünnt gemessen wurden. Antibiotikaspiegel wurden wie unten angegeben auf Agarplatten ermittelt.
# Die Platten wurden bei 37°C über Nacht bebrütet und die Hemmzonen auf die nächsten […] abgelesen. Die Berechnungen wurden mittels einer Autoassaymaschine (Giles Scientific, Inc., New York) vorgenommen. Vergleiche J.V. Bennett et al., Applied Microbiology 14, 170-177 (1966).
# [4] = Enteral absorption in vivo (dogs): capsules through a modified Thomas cannula into the proximal jejunum, plasma level and bioavailability; details: for Cmax: beagle, dog, plasma
# Experimental: Als Versuchstiere wurden sechs Beagle-Hunde im Gewicht von etwa 10-16 kg eingesetzt, denen eine modifizierte Thomaskanüle in das distale Duodenum eingesetzt worden war. […] Die Kapseln wurden durch die modifizierte Thomaskanüle in das proximale Jejunum appliziert. Die Dosierung war 20-50 mg Ceftriaxon pro kg Körpergewicht.
# Die Plasmakonzentrationen von Ceftriaxon wurden vor der Verabreichung und 10, 20, 40, 60, 120, 180 und 240 Minuten nach der Verabreichung ermittelt. Zur Erstellung einer Standardkurve wurde Ceftriaxon mit normalem Hundeplasma verdünnt und deproteinisiert. Die Fläche unter der Kurve (AUC) wurde für jede Verabreichungsweise bestimmt. Aus diesen Bestimmungen wurde die Bioverfügbarkeit wie folgt berechnet. [formula]
# Wenn keine i.v.-Daten für den gleichen enteral verwendeten Dosisspiegel verfügbar waren, wurde die folgende Gleichung angewandt: [formula]
# [5] = Oral absorption in vivo (monkeys): enteric-coated hard gelatin capsules by gavage, plasma bioassay; details: for Cmax: monkey, plasma
# Experimental: Erwachsene Affen (Papio anubis und Papio hamadryas) im Gewicht von 12-30 kg wurden über Nacht fasten gelassen, dann durch i.m.-Injektion von Ketaminhydrochlorid vor der Verabreichung des Antibiotikums sediert. Jeder Affe erhielt vier Hartgelatinekapseln durch Schlundsonde mit der folgenden Zusammensetzung:
# Die Kapseln wurden mit einem Ueberzug von Polyvinylacetatphthalat (etwa 8% des Kapselgewichtes versehen).
# 1 ml Pro Blutproben wurden aus der Femoralregion jedes Affen mit einer heparinisierten 3-ml Spritze entnommen. Die Proben wurden vor der Verabreichung des Antibiotikums und 15, 30, 60, 120, 240, 360, 480, 600 und 720 Minuten danach entnommen. Die Blutproben wurden zentrifugiert und das Plasma nach Deproteinisierung mit Acetonitril einem Bioassay unterworfen.
# [6] = both sexes, monkey, plasma, 500 mg, rectal suppository, Mit Resorptionsverstärker System: 500 mg Antibiotikum, 125 mg Laureth-12, 250 mg Labrasol, 1125 mg Witepsol H15, read-out: Cmax Bereich
# [7] = both sexes, monkey, plasma, rectal suppository, Kontrolle ohne Resorptionsverstärker, read-out: Cmax Bereich
# [8] = rectal suppository, Kontrolle ohne Resorptionsverstärker
# [9] = rectal suppository, Mit Resorptionsverstärker System: 500 mg Antibiotikum, 125 mg Laureth-12, 250 mg Labrasol, 1125 mg Witepsol H15
# [10] = 2-3 enteric-coated capsules each 300 mg Ceftriaxonnatrium, 225 mg Labrasol, 75 mg Laureth-12, 380 mg Witepsol H15
# [11] = Kontrollwert: Ceftriaxonnatrium 300 mg in the same capsule without absorption enhancer
# [12] = enteral (proximal jejunum), 2 capsules with 210 ml Ceftriaxonnatrium in 280 mg WITEPSOL H15 + 157,5 mg Labrasol + 52,5 mg Laureth-12, 20-50 mg/kg
molecule,measurement,setting,value
"Cn1nnnc1SCC1=C(C(=O)O)N2C(=O)[C@@H](NC(=O)[C@H](O)c3ccccc3)[C@H]2SC1 [Cefamandole, Cefamandol]",Cmax,[1]; [6],5.9 to 16.4 µg/mL
same,Cmax,[1]; [7],2.3 to 4.6 µg/mL
same,% Bioverfügbarkeit,[1]; [8],6.0 ± 2.3%
same,% Bioverfügbarkeit,[1]; [9],46.5 ± 16.6%
CO[C@@]1(NC(=O)Cc2cccs2)C(=O)N2C(C(=O)O)=C(COC(N)=O)CS[C@@H]21 [Cefoxitin],Cmax,[1]; [6],4.7 to 10.8 µg/mL
same,% Bioverfügbarkeit,[1]; [8],0%
same,% Bioverfügbarkeit,[1]; [9],77.0 ± 22.5%
CO/N=C(\C(=O)N[C@@H]1C(=O)N2C(C(=O)O)=C(CSc3nc(=O)c(=O)[nH]n3C)CS[C@H]12)c1csc(N)n1 [Ceftriaxon],Bioverfügbarkeit,[2]; [10],"34,2 ± 14,0%"
same,Bioverfügbarkeit,[2]; [11],0%
same,Bioverfügbarkeit,"[2]; formulation 300 mg Ceftriaxonnatrium, 200 mg Natriumcaprylat, 75 mg Laureth-12, 415 mg Witepsol H15","22,4 + 13,5%"
same,Cmax,"[2]; 300 mg per capsule, formulation 300 mg Ceftriaxonnatrium, 200 mg Natriumcaprylat, 75 mg Laureth-12, 415 mg Witepsol H15",14.4 µg/mL
same,Cmax,[2]; [10],21.6 µg/mL
same,Cmax,"[3]; female, rat, plasma, 5 mg/0,5 ml, Cmax, Acconon Con + Laureth-12 (weight ratio 8:1)",38.8 ± 22.6 µg/mL
same,Cmax,"[3]; female, rat, plasma, 5 mg/0,5 ml, Cmax, Kontrolle Wasser, no absorption enhancer",2.4 ± 1.9 µg/mL
same,Cmax,"[3]; female, rat, plasma, 5 mg/0,5 ml, Cmax, Labrasol + Laureth-12 (weight ratio 8:1)",106 ± 23 µg/mL
same,Cmax,"[3]; female, rat, plasma, 5 mg/0,5 ml, Cmax, Natriumcaprylat (30%) + Laureth-12 (weight ratio 8:1)",53.7 ± 13.3 µg/mL
same,Cmax,[4]; [12],19.5 µg/mL
same,Cmax,"[4]; other: enteral, enteral, Kontrolle: solution of Ceftriaxon in water equivalent to 25 mg/kg, no absorption enhancer",0.5 µg/mL
same,Bioverfügbarkeit,[4]; [12],"45,4 ± 18,2%"
same,Bioverfügbarkeit,"[4]; enteral, Kontrolle: solution of Ceftriaxon in water equivalent to 25 mg/kg, no absorption enhancer",0%
same,Cmax,[1]; [6],18.2 to 49.6 µg/mL
same,Cmax,"[1]; both sexes, monkey, plasma, 600 mg, rectal, Kontrollwert: 600 mg Ceftriaxonnatrium in suppository mass without absorption enhancer, read-out: Cmax-Bereich",0.3 to 9 µg/mL
same,Cmax,"[1]; both sexes, monkey, plasma, 600 mg, rectal, formulation 600 mg Ceftriaxonnatrium, 200 mg Natriumcaprylat, 125 mg Laureth-12, 1075 mg Witepsol H15, read-out: Cmax-Bereich",68.1 to 1000 µg/mL
same,Cmax,[1]; [7],0.3 to 9 µg/mL
same,% Bioverfügbarkeit,[1]; [8],4.3 ± 2.8%
same,% Bioverfügbarkeit,[1]; [9],31.5 ± 13.1%
same,Bioverfügbarkeit,"[1]; rectal, Kontrollwert: 600 mg Ceftriaxonnatrium in suppository mass without absorption enhancer","4,3%"
same,Bioverfügbarkeit,"[1]; rectal, formulation 600 mg Ceftriaxonnatrium, 200 mg Natriumcaprylat, 125 mg Laureth-12, 1075 mg Witepsol H15","49,3 ± 13.7%"
same,Bioverfügbarkeit,"[5]; 4 enteric-coated capsules each 300 mg Ceftriaxonnatrium, 225 mg Labrasol, 75 mg Laureth-12, 380 mg Witepsol H15","10,8 ± 6,5%"
same,Bioverfügbarkeit,[5]; [11],0%
same,Bioverfügbarkeit,"[5]; formulation 300 mg Ceftriaxonnatrium, 75 mg Laureth-12, 415 mg Witepsol H15","15,7 + 9,9%"
same,Cmax,"[5]; 300 mg per capsule, formulation 300 mg Ceftriaxonnatrium, 200 ml Natriumcaprylat, 75 mg Laureth-12, 415 mg Witepsol H15, read-out: Cmax-Bereich",15 to 66.3 µg/mL
same,Cmax,"[5]; 1200 mg, 4 enteric-coated capsules each 300 mg Ceftriaxonnatrium, 225 mg Labrasol, 75 mg Laureth-12, 380 mg Witepsol H15, read-out: Cmax-Bereich",5.5 to 59.8 µg/mL
CC1(C)S[C@@H]2[C@H](NC(=O)Cc3ccccc3)C(=O)N2[C@H]1C(=O)O [Penicillin G],Cmax,"[3]; rat, in vivo, 5 mg, Cmax, Acconon Con + Laureth-12 (weight ratio 8:1)",3.5 ± 1 µg/mL
same,Cmax,"[3]; rat, in vivo, 5 mg, Cmax, Kontrolle Wasser, no absorption enhancer",0.5 ± 0.1 µg/mL
same,Cmax,"[3]; rat, in vivo, 5 mg, Cmax, Labrasol + Laureth-12 (weight ratio 8:1)",5.2 ± 1.6 µg/mL
same,Cmax,"[3]; rat, in vivo, 5 mg, Cmax, Natriumcaprylat (30%) + Laureth-12 (weight ratio 8:1)",7.4 ± 2.4 µg/mL
same,Cmax,"[1]; baboon, in vivo, rectal suppository, Kontrolle ohne Resorptionsverstärker, read-out: Cmax Bereich",1.2 to 2.4 µg/mL
same,Cmax,"[1]; baboon, in vivo, rectal suppository, Mit Resorptionsverstärker System: 500 mg Antibiotikum, 125 mg Laureth-12, 250 mg Labrasol, 1125 mg Witepsol H15, read-out: Cmax Bereich",2 to 11.1 µg/mL
same,% Bioverfügbarkeit,[1]; [8],17.4 ± 8.0%
same,% Bioverfügbarkeit,[1]; [9],38.2 ± 26.1%
CN[C@H](CC(C)C)C(=O)N[C@H]1C(=O)N[C@@H](CC(N)=O)C(=O)N[C@H]2C(=O)N[C@H]3C(=O)N[C@H](C(=O)N[C@H](C(=O)O)c4cc(O)cc(O)c4-c4cc3ccc4O)[C@H](O)c3ccc(c(Cl)c3)Oc3cc2cc(c3O[C@@H]2O[C@H](CO)[C@@H](O)[C@H](O)[C@H]2O[C@H]2C[C@](C)(N)[C@H](O)[C@H](C)O2)Oc2ccc(cc2Cl)[C@H]1O [Vancomycin],Cmax,"[3]; female, rat, in vivo, 5 mg/0,5 ml, Cmax, Kontrolle Wasser, no absorption enhancer",2.9 ± 0.6 µg/mL
same,Cmax,"[3]; female, rat, in vivo, 5 mg/0,5 ml, Cmax, Labrasol + Laureth-12 (weight ratio 8:1)",6.9 ± 1 µg/mL
same,Cmax,"[3]; female, rat, in vivo, 5 mg/0,5 ml, Cmax, Natriumcaprylat (30%) + Laureth-12 (weight ratio 8:1)",9.8 ± 3.5 µg/mL
Gentamicin,Cmax,[3]; Acconon Con + Laureth-12 (weight ratio 8:1),15.4 ± 2.3 µg/mL
same,Cmax,"[3]; Kontrolle Wasser, no absorption enhancer",3.9 µg/mL
same,Cmax,[3]; Labrasol + Laureth-12 (weight ratio 8:1),9.6 ± 1.9 µg/mL
same,Cmax,[3]; Natriumcaprylat (30%) + Laureth-12 (weight ratio 8:1),14.1 ± 6.9 µg/mL
